Data from patent US6355799B1, “Substituted benzene compounds, process for their preparation, and herbicidal and defoliant compositions containing them” (ISK Americas Incorporated, priority 1997, dated 2002).

Experiments:
Type in all cases: in vivo
[1] = system: redroot pigweed (Amaranthus retroflexus, AMARE); assay: Pre-emerge test, greenhouse herbicide activity screening; conditions: rating scale 0-100, 14 days after application
Summary of the method: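 Herbicidal damage is scored 0 (none) to 100 (complete plant death) two weeks after a simulated field spray. Rates span 15–1000 g ai/ha, delivered in acetone at 187 l/ha. For post-emergence treatments, plants have 2–3 leaves and the spray carries 0.25% v/v non-ionic surfactant.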

[2] = system: barnyardgrass (Echinochloa crus-galli, ECHCG); assay: as above; conditions: rating scale 0-100, 14 days after application
Summary of the method: (§1)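 Rating: 0–100 visual injury, 14 DAA. Application: acetone, 187 l/ha, 15–1000 g ai/ha, flat-fan track sprayer with nozzle 40–45 cm above soil or canopy. Post-emerge runs used 0.25% v/v surfactant on 2–3 leaf plants.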

[3] = system: green foxtail (Setaria viridis, SETVI); assay: as above; conditions: rating scale 0-100, 14 days after application
Summary of the method: as §1

[4] = system: ivyleaf morningglory (Ipomoea hederacea, IPOHE); assay: as above; conditions: rating scale 0-100, 14 days after application
Summary of the method: as §1

[5] = system: johnsongrass (Sorghum halepense, SORHA); assay: as above; conditions: rating scale 0-100, 14 days after application
Summary of the method: as §1

[6] = system: lambsquarters (Chenopodium album, CHEAL); assay: as above; conditions: rating scale 0-100, 14 days after application
Summary of the method: as §1

[7] = system: large crabgrass (Digitaria sanguinalis, DIGSA); assay: as above; conditions: rating scale 0-100, 14 days after application
Summary of the method: as §1

[8] = system: sicklepod (Cassia obtusifolia, CASOB); assay: as above; conditions: rating scale 0-100, 14 days after application
Summary of the method: as §1

[9] = system: velvetleaf (Abutilon theophrasti, ABUTH); assay: as above; conditions: rating scale 0-100, 14 days after application
Summary of the method: as §1

[10] = system: field corn (Zea mays L., var. Dekalb 535, CORN); assay: Pre-emerge test, crop safety; conditions: rating scale 0-100, 14 days after application
Summary of the method: (§2)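 Visual ratings on a 0-100 scale (0 no damage, 100 all plants dead) were taken at 14 days after treatment. Rates of 15-1000 g ai/ha in acetone, 187 l/ha, were sprayed onto soil one day after planting (pre-emerge) or onto 2-3 leaf plants with 0.25% v/v surfactant (post-emerge).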

[11] = system: upland rice (Oryza sp., var. Tebonnet, RICE); assay: Pre-emerge test, crop safety; conditions: rating scale 0-100, 14 days after application
Summary of the method: as §2

[12] = system: barnyardgrass (Echinochloa crus-galli, ECHCG); assay: Post-emerge test, greenhouse herbicide activity screening; conditions: rating scale 0-100 (0 no damage, 100 complete death), 14 days after application
Summary of the method: as §1

[13] = system: common ragweed (Ambrosia artemisizfolia L., AMBEL); assay: as above; conditions: rating scale 0-100 (0 no damage, 100 complete death), 14 days after application
Summary of the method: as §1

[14] = system: green foxtail (Setaria viridis, SETVI); assay: as above; conditions: rating scale 0-100 (0 no damage, 100 complete death), 14 days after application
Summary of the method: as §1

[15] = system: ivyleaf morningglory (Ipomoea hederacea, IPOHE); assay: as above; conditions: rating scale 0-100 (0 no damage, 100 complete death), 14 days after application
Summary of the method: as §1

[16] = system: johnsongrass (Sorghum halepense, SORHA); assay: as above; conditions: rating scale 0-100 (0 no damage, 100 complete death), 14 days after application
Summary of the method: as §1

[17] = system: lambsquarters (Chenopodium album, CHEAL); assay: as above; conditions: rating scale 0-100 (0 no damage, 100 complete death), 14 days after application
Summary of the method: as §1

[18] = system: large crabgrass (Digitaria sanguinalis, DIGSA); assay: as above; conditions: rating scale 0-100 (0 no damage, 100 complete death), 14 days after application
Summary of the method: as §1

[19] = system: redroot pigweed (Amaranthus retroflexus, AMARE); assay: as above; conditions: rating scale 0-100 (0 no damage, 100 complete death), 14 days after application
Summary of the method: as §1

[20] = system: sicklepod (Cassia obtusifolia, CASOB); assay: as above; conditions: rating scale 0-100 (0 no damage, 100 complete death), 14 days after application
Summary of the method: as §1

[21] = system: velvetleaf (Abutilon theophrasti, ABUTH); assay: as above; conditions: rating scale 0-100 (0 no damage, 100 complete death), 14 days after application
Summary of the method: as §1

[22] = system: field corn (Zea mays L., var. Dekalb 535, CORN); assay: Post-emerge test, crop safety; conditions: rating scale 0-100 (0 no damage, 100 complete death), 14 days after application
Summary of the method: (§3)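 Plants grown in 10 cm pots of sandy loam mix received acetone-dissolved compounds through a moving flat-fan nozzle. Doses ranged from 15 to 1000 g ai/ha. Pre-emerge pots were seeded one day earlier, post-emerge pots 8–21 days earlier. Fourteen days on, each pot was graded 0–100 for damage.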

[23] = system: upland rice (Oryza sp., var. Tebonnet, RICE); assay: Post-emerge test, crop safety; conditions: rating scale 0-100 (0 no damage, 100 complete death), 14 days after application
Summary of the method: as §3

Compound: CCOCCOC(=O)C(Cl)Cc1c(OC)c(Cl)cc(F)c1-n1c(=O)cc(C(F)(F)F)n(C)c1=O (stereo not shown) [14-26]
- Pre-emerge herbicidal activity, phytotoxicity rating AMARE ([1]; 63 g ai/ha): 100
- Pre-emerge herbicidal activity, phytotoxicity rating AMARE ([1]; 250 g ai/ha): 100
- Pre-emerge herbicidal activity, phytotoxicity rating ECHCG ([2]; 63 g ai/ha): 0
- Pre-emerge herbicidal activity, phytotoxicity rating ECHCG ([2]; 250 g ai/ha): 95
- Pre-emerge herbicidal activity, phytotoxicity rating SETVI ([3]; 63 g ai/ha): 0
- Pre-emerge herbicidal activity, phytotoxicity rating SETVI ([3]; 250 g ai/ha): 99
- Pre-emerge herbicidal activity, phytotoxicity rating IPOHE ([4]; 63 g ai/ha): 0
- Pre-emerge herbicidal activity, phytotoxicity rating IPOHE ([4]; 250 g ai/ha): 0
- Pre-emerge herbicidal activity, phytotoxicity rating SORHA ([5]; 63 g ai/ha): 0
- Pre-emerge herbicidal activity, phytotoxicity rating SORHA ([5]; 250 g ai/ha): 70
- Pre-emerge herbicidal activity, phytotoxicity rating CHEAL ([6]; 63 g ai/ha): 70
- Pre-emerge herbicidal activity, phytotoxicity rating CHEAL ([6]; 250 g ai/ha): 100
- Pre-emerge herbicidal activity, phytotoxicity rating DIGSA ([7]; 63 g ai/ha): 50
- Pre-emerge herbicidal activity, phytotoxicity rating DIGSA ([7]; 250 g ai/ha): 95
- Pre-emerge herbicidal activity, phytotoxicity rating CASOB ([8]; 63 g ai/ha): 0
- Pre-emerge herbicidal activity, phytotoxicity rating CASOB ([8]; 250 g ai/ha): 20
- Pre-emerge herbicidal activity, phytotoxicity rating ABUTH ([9]; 63 g ai/ha): 80
- Pre-emerge herbicidal activity, phytotoxicity rating ABUTH ([9]; 250 g ai/ha): 100
- Pre-emerge phytotoxicity rating, crop damage CORN ([10]; 63 g ai/ha): 0
- Pre-emerge phytotoxicity rating, crop damage CORN ([10]; 250 g ai/ha): 50
- Pre-emerge phytotoxicity rating, crop damage RICE ([11]; 63 g ai/ha): 0
- Pre-emerge phytotoxicity rating, crop damage RICE ([11]; 250 g ai/ha): 80
- Post-emerge Herbicidal Activity, phytotoxicity rating ECHCG ([12]; Rate 63 g ai/ha): 100
- Post-emerge Herbicidal Activity, phytotoxicity rating ECHCG ([12]; Rate 250 g ai/ha): 100
- Post-emerge Herbicidal Activity, phytotoxicity rating AMBEL ([13]; Rate 63 g ai/ha): 100
- Post-emerge Herbicidal Activity, phytotoxicity rating AMBEL ([13]; Rate 250 g ai/ha): 100
- Post-emerge Herbicidal Activity, phytotoxicity rating SETVI ([14]; Rate 63 g ai/ha): 0
- Post-emerge Herbicidal Activity, phytotoxicity rating SETVI ([14]; Rate 250 g ai/ha): 0
- Post-emerge Herbicidal Activity, phytotoxicity rating IPOHE ([15]; Rate 63 g ai/ha): 20
- Post-emerge Herbicidal Activity, phytotoxicity rating IPOHE ([15]; Rate 250 g ai/ha): 100
- Post-emerge Herbicidal Activity, phytotoxicity rating SORHA ([16]; Rate 63 g ai/ha): 30
- Post-emerge Herbicidal Activity, phytotoxicity rating SORHA ([16]; Rate 250 g ai/ha): 70
- Post-emerge Herbicidal Activity, phytotoxicity rating CHEAL ([17]; Rate 63 g ai/ha): 60
- Post-emerge Herbicidal Activity, phytotoxicity rating CHEAL ([17]; Rate 250 g ai/ha): 100
- Post-emerge Herbicidal Activity, phytotoxicity rating DIGSA ([18]; Rate 63 g ai/ha): 100
- Post-emerge Herbicidal Activity, phytotoxicity rating DIGSA ([18]; Rate 250 g ai/ha): 100
- Post-emerge Herbicidal Activity, phytotoxicity rating AMARE ([19]; Rate 63 g ai/ha): 90
- Post-emerge Herbicidal Activity, phytotoxicity rating AMARE ([19]; Rate 250 g ai/ha): 100
- Post-emerge Herbicidal Activity, phytotoxicity rating CASOB ([20]; Rate 63 g ai/ha): 50
- Post-emerge Herbicidal Activity, phytotoxicity rating CASOB ([20]; Rate 250 g ai/ha): 90
- Post-emerge Herbicidal Activity, phytotoxicity rating ABUTH ([21]; Rate 63 g ai/ha): 70
- Post-emerge Herbicidal Activity, phytotoxicity rating ABUTH ([21]; Rate 250 g ai/ha): 100
- Post-emerge phytotoxicity rating CORN (crop damage) ([22]; Rate 63 g ai/ha): 40
- Post-emerge phytotoxicity rating CORN (crop damage) ([22]; Rate 250 g ai/ha): 100
- Post-emerge phytotoxicity rating RICE (crop damage) ([23]; Rate 63 g ai/ha): 10
- Post-emerge phytotoxicity rating RICE (crop damage) ([23]; Rate 250 g ai/ha): 10
